Measurements: PubChem BioAssay (NCI)
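Assay format: 96-well plates, 48-hour exposure. Here, GI50 denotes the concentration required for 50% inhibition of growth. TGI marks complete inhibition of growth.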

How the values were obtained:
Test in all cases: inhibition of tumour cell growth, NCI panel, 48 h
[1] = system: SF-268 CNS
[2] = system: SK-OV-3 ovarian
[3] = system: K-562 leukemia
[4] = system: HT29 colon
[5] = system: HCT-15 colon
[6] = system: CCRF-CEM leukemia
[7] = system: U251 CNS
[8] = system: NCI-H226 lung
[9] = system: LOX IMVI melanoma
[10] = system: A498 renal
[11] = system: TK-10 renal
[12] = system: MOLT-4 leukemia
[13] = system: MCF7 breast
[14] = system: SN12C renal
[15] = system: OVCAR-4 ovarian
[16] = system: BT-549 breast
[17] = system: SK-MEL-5 melanoma
[18] = system: A549 NSCLC
[19] = system: RXF 393 renal
[20] = system: SNB-75 CNS
[21] = system: UACC-62 melanoma
[22] = system: SK-MEL-28 melanoma
[23] = system: CAKI-1 renal
[24] = system: OVCAR-3 ovarian
[25] = system: KM12 colon
[26] = system: SR leukemia
[27] = system: MDA-MB-231 breast
[28] = system: OVCAR-5 ovarian
[29] = system: HOP-62 NSCLC
[30] = system: OVCAR-8 ovarian
[31] = system: COLO 205 colon
[32] = system: UO-31 renal
[33] = system: RPMI-8226 leukemia
[34] = system: NCI/ADR-RES ovarian
[35] = system: ACHN renal
[36] = system: UACC-257 melanoma
[37] = system: NCI-H522 lung
[38] = system: EKVX NSCLC
[39] = system: 786-0 renal
[40] = system: HCC-2998 colon
[41] = system: HL-60(TB) leukemia
[42] = system: NCI-H460 lung
[43] = system: DU-145 prostate
[44] = system: M14 melanoma
[45] = system: SW-620 colon
[46] = system: MALME-3M melanoma
[47] = system: SNB-19 CNS
[48] = system: HS 578T breast
[49] = system: SF-539 CNS
[50] = system: NCI-H23 lung
[51] = system: T-47D breast
[52] = system: SF-295 CNS
[53] = system: IGROV1 ovarian
[54] = system: HCT-116 colon
[55] = system: HOP-92 NSCLC
[56] = system: MDA-MB-435
[57] = system: PC-3 prostate

## CCOC(=O)/C=C(/C)Sc1cc(O)c2ccccc2c1O
[1]
  GI50: 4.24 µM
  TGI: 14.6 µM
[2]
  GI50: 13.8 µM
  TGI: 44.5 µM
[3]
  GI50: 2.48 µM
  TGI: 6.68 µM
[4]
  GI50: 19.2 µM
  TGI: 48.4 µM
[5]
  GI50: 2.54 µM
  TGI: 8.83 µM
[6]
  GI50: 2.73 µM
  TGI: 6.83 µM
[7]
  GI50: 4.31 µM
  TGI: 24 µM
[8]
  GI50: 14.5 µM
  TGI: 32.8 µM
[9]
  GI50: 2.14 µM
  TGI: > 23.1 µM
[10]
  GI50: 22.8 µM
  TGI: 56.3 µM
[11]
  GI50: 8.29 µM
  TGI: 17.9 µM
[12]
  GI50: 2.33 µM
  TGI: 7.08 µM
[13]
  GI50: 1.54 µM
  TGI: 3.59 µM
[14]
  GI50: 2.48 µM
  TGI: 7.29 µM
[15]
  GI50: 3.36 µM
  TGI: 13.2 µM
[16]
  GI50: 2.93 µM
  TGI: 10.5 µM
[17]
  GI50: 1.59 µM
  TGI: 2.99 µM
[18]
  GI50: 2.5 µM
  TGI: 5.99 µM
[19]
  GI50: 2.28 µM
  TGI: 6.34 µM
[20]
  GI50: 2.55 µM
  TGI: 6.94 µM
[21]
  GI50: 3.67 µM
  TGI: 14 µM
[22]
  GI50: 2.34 µM
  TGI: 5.45 µM
[23]
  GI50: 7.33 µM
  TGI: 20 µM
[24]
  GI50: 2 µM
  TGI: 5.1 µM
[25]
  GI50: 12.9 µM
  TGI: 26.8 µM
[26]
  GI50: 1.3 µM
  TGI: 4.16 µM
[27]
  GI50: 2.67 µM
  TGI: 15.3 µM
[28]
  GI50: 17.5 µM
  TGI: 34 µM
[29]
  GI50: 3.02 µM
  TGI: 12.9 µM
[30]
  GI50: 2.99 µM
  TGI: 12.9 µM
[31]
  GI50: 7.22 µM
  TGI: 20.7 µM
[32]
  GI50: 1.59 µM
  TGI: 11.1 µM
[33]
  GI50: 2.29 µM
  TGI: 9.09 µM
[34]
  GI50: 3.99 µM
  TGI: 25.2 µM
[35]
  GI50: 2.78 µM
  TGI: 9.82 µM
[36]
  GI50: 1.8 µM
  TGI: 3.87 µM
[37]
  GI50: 1.73 µM
  TGI: 4.66 µM
[38]
  GI50: 3.89 µM
  TGI: 21.2 µM
[39]
  GI50: 15.2 µM
  TGI: 28.6 µM
[40]
  GI50: 16.2 µM
  TGI: 31.1 µM
[41]
  GI50: 2.29 µM
  TGI: 5.72 µM
[42]
  GI50: 13.9 µM
  TGI: 30.4 µM
[43]
  GI50: 1.86 µM
  TGI: 3.44 µM
[44]
  GI50: 1.76 µM
  TGI: 3.48 µM
[45]
  GI50: 2.3 µM
  TGI: 5.39 µM
[46]
  GI50: 1.93 µM
  TGI: 3.71 µM
[47]
  GI50: 4.05 µM
  TGI: 17 µM
[48]
  GI50: 2.26 µM
  TGI: 6.58 µM
[49]
  GI50: 4.84 µM
  TGI: 11.7 µM
[50]
  GI50: 2.07 µM
  TGI: 5.67 µM
[51]
  GI50: 2.23 µM
  TGI: 13.1 µM
[52]
  GI50: 12.4 µM
  TGI: 26.4 µM
[53]
  GI50: 2.26 µM
  TGI: 17.8 µM
[54]
  GI50: 2.05 µM
  TGI: 4.95 µM
[55]
  GI50: 3.21 µM
  TGI: 11.9 µM
[56]
  GI50: 1.75 µM
  TGI: 3.28 µM
[57]
  GI50: 4.59 µM
  TGI: 22.8 µM
